Values joined by “and” are separate entries in the source; they are usually repeats but may differ in a detail not shown here. Equal entries are not always repeated. Inconclusive results and toxic doses are left out. Rule as the data show it: active = T/C of 150% or more; inactive = T/C below 125%.
Test system: L1210 leukemia ip in BDF1 mice, survival T/C
Assay: NCI In Vivo Anticancer Drug Screen. Data for tumor model L1210 Leukemia (intraperitoneal) in B6D2F1 (BDF1) mice
Conditions: endpoint: mean survival time, higher = longer survival
Summary of the method: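 Value reflects the ratio of survival in compound-treated mice to survival in vehicle-treated controls, with both groups carrying the same transplanted tumor.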

[1] = dose: 100.0 mg/kg/injection, schedule: Q01DX009 (ip), vehicle: Klucel (hydroxypropylcellulose) (HPC)
[2] = dose: 200.0 mg/kg/injection, schedule: Q01DX009 (ip), vehicle: Klucel (hydroxypropylcellulose) (HPC)
[3] = dose: 400.0 mg/kg/injection, schedule: Q01DX009 (ip), vehicle: Klucel (hydroxypropylcellulose) (HPC)
[4] = dose: 100.0 mg/kg/injection, schedule: Q01DX001 (ip), vehicle: saline
[5] = dose: 200.0 mg/kg/injection, schedule: Q01DX001 (ip), vehicle: saline
[6] = dose: 400.0 mg/kg/injection, schedule: Q01DX001 (ip), vehicle: saline
[7] = dose: 100.0 mg/kg/injection, schedule: Q01DX009 (ip), vehicle: saline with Tween-80
[8] = dose: 200.0 mg/kg/injection, schedule: Q01DX009 (ip), vehicle: saline with Tween-80
[9] = dose: 400.0 mg/kg/injection, schedule: Q01DX009 (ip), vehicle: saline with Tween-80
[10] = dose: 100.0 mg/kg/injection, schedule: Q04DX003 (ip), vehicle: saline
[11] = dose: 200.0 mg/kg/injection, schedule: Q04DX003 (ip), vehicle: saline
[12] = dose: 400.0 mg/kg/injection, schedule: Q04DX003 (ip), vehicle: saline
[13] = dose: 100.0 mg/kg/injection, schedule: Q01DX001 (ip), vehicle: saline with Tween-80
[14] = dose: 100.0 mg/kg/injection, schedule: Q04DX002 (ip), vehicle: saline with Tween-80
[15] = dose: 200.0 mg/kg/injection, schedule: Q01DX001 (ip), vehicle: saline with Tween-80
[16] = dose: 200.0 mg/kg/injection, schedule: Q04DX002 (ip), vehicle: saline with Tween-80
[17] = dose: 400.0 mg/kg/injection, schedule: Q01DX001 (ip), vehicle: saline with Tween-80
[18] = dose: 400.0 mg/kg/injection, schedule: Q04DX002 (ip), vehicle: saline with Tween-80

Measured: T/C

CN(CN(C)NC(=O)c1ccccc1)NC(=O)c1ccccc1
inactive: dose: 100.0 mg/kg/injection, schedule: Q01DX001 (ip), vehicle: carboxymethylcellulose (CMC) 98 % of control

CC1CCC(N=S=O)CC1 (stereo unspecified) (tested in a mixture with another compound)
inactive: dose: 18.75 mg/kg/injection, schedule: Q01DX009 (ip), vehicle: saline with Tween-80 102 % of control | dose: 25.6 mg/kg/injection, schedule: Q04DX002 (ip), vehicle: saline with Tween-80 102 % of control | dose: 37.5 mg/kg/injection, schedule: Q01DX009 (ip), vehicle: saline with Tween-80 102 % of control | dose: 64.0 mg/kg/injection, schedule: Q04DX002 (ip), vehicle: saline with Tween-80 109 % of control | dose: 75.0 mg/kg/injection, schedule: Q01DX009 (ip), vehicle: saline with Tween-80 111 % of control | dose: 100.0 mg/kg/injection, schedule: Q04DX003 (ip), vehicle: saline with Tween-80 101 % of control | dose: 160.0 mg/kg/injection, schedule: Q04DX002 (ip), vehicle: saline with Tween-80 95 % of control

CN1C(=O)C2C3C=CC(C3)C2C1=O (stereo unspecified)
inactive: dose: 100.0 mg/kg/injection, schedule: Q01DX001 (ip), vehicle: Klucel (hydroxypropylcellulose) (HPC) 97 % of control | [1] 101 % of control | dose: 200.0 mg/kg/injection, schedule: Q01DX001 (ip), vehicle: Klucel (hydroxypropylcellulose) (HPC) 101 % of control | [2] 100 % of control | dose: 400.0 mg/kg/injection, schedule: Q01DX001 (ip), vehicle: Klucel (hydroxypropylcellulose) (HPC) 106 % of control | [3] 96 % of control

COc1cc(C=Nc2ccc(Oc3ccc(Cl)cc3)cc2)cc(OC)c1OC
inactive: [1] 102 % of control | [2] 96 % of control

CCC[CH2][Sn]1([CH2]CCC)[O]OC(C)(CC)[O]1 (stereo unspecified)
inactive: dose: 6.25 mg/kg/injection, schedule: Q01DX009 (ip), vehicle: saline sonified 108 % of control

COc1ccc(/C=C2\N=C(c3ccc([N+](=O)[O-])cc3)OC2=O)cc1
inactive: [1] 93 % of control | [2] 91 % of control | [3] 95 % of control

O=C(O)CCC(=O)c1ccc2ccc3cccc4ccc1c2c34
inactive: [4] 98 % of control | [5] 102 % of control | [6] 103 % of control

CSc1ccc(C(=O)NN)cc1
inactive: dose: 50.0 mg/kg/injection, schedule: Q01DX001 (ip), vehicle: saline 101 % of control | [4] 101 % of control | [5] 101 % of control | [6] 104 % of control

CCCCCCCCCCCC(=O)NC(=S)Nc1ccc([N+](=O)[O-])cc1C
inactive: dose: 100.0 mg/kg/injection, schedule: Q04DX003 (ip), vehicle: Klucel (hydroxypropylcellulose) (HPC) 88 % of control | dose: 200.0 mg/kg/injection, schedule: Q04DX003 (ip), vehicle: Klucel (hydroxypropylcellulose) (HPC) 86 % of control | dose: 400.0 mg/kg/injection, schedule: Q04DX003 (ip), vehicle: Klucel (hydroxypropylcellulose) (HPC) 90 % of control

CCOC(=O)N1C(C)C1C(C)C (stereo unspecified)
inactive: dose: 62.0 mg/kg/injection, schedule: Q04DX003 (ip), vehicle: carboxymethylcellulose (CMC) 97 % of control | dose: 125.0 mg/kg/injection, schedule: Q04DX003 (ip), vehicle: carboxymethylcellulose (CMC) 97 % of control | dose: 250.0 mg/kg/injection, schedule: Q04DX003 (ip), vehicle: carboxymethylcellulose (CMC) 94 % of control

O=C(Nc1cccc(C(F)(F)F)c1)Nc1cccc2ccc(O)cc12
inactive: [1] 107 % of control | [2] 106 % of control | [3] 98 % of control

NC(=O)NCCO
inactive: [4] 98 % of control | [5] 106 % of control | [6] 98 % of control

COc1ccc(C2CCc3cc4c(cc3C2=O)OCO4)cc1OC (stereo unspecified)
inactive: [7] 98 % of control | [8] 98 % of control | [9] 98 % of control

COC1OC(COC(C)=O)C(OC(C)=O)C(OC(C)=O)[CH]1[Hg][S]c1ccccc1 (stereo unspecified)
inactive: dose: 1.0 mg/kg/injection, schedule: Q01DX015 (ip), vehicle: carboxymethylcellulose (CMC) 105 % of control | dose: 2.0 mg/kg/injection, schedule: Q01DX015 (ip), vehicle: carboxymethylcellulose (CMC) 98 % of control | dose: 4.0 mg/kg/injection, schedule: Q01DX015 (ip), vehicle: carboxymethylcellulose (CMC) 100 % of control | dose: 8.0 mg/kg/injection, schedule: Q01DX015 (ip), vehicle: carboxymethylcellulose (CMC) 94 % of control and 86 % of control | dose: 16.0 mg/kg/injection, schedule: Q01DX015 (ip), vehicle: carboxymethylcellulose (CMC) 109 % of control

C=CC1CC(=O)N1C (stereo unspecified)
inactive: [10] 100 % of control | [11] 110 % of control | [12] 112 % of control

O=C(O)c1ccc(C(=O)O)c([N+](=O)[O-])c1
inactive: [10] 102 % of control | [11] 100 % of control | [12] 96 % of control

CC1=CC(=O)N(CO)C1=O
inactive: dose: 25.0 mg/kg/injection, schedule: Q04DX003 (ip), vehicle: water 94 % of control | dose: 50.0 mg/kg/injection, schedule: Q04DX003 (ip), vehicle: water 98 % of control

O=C(O)c1ccc(N=Cc2cccc([N+](=O)[O-])c2)cc1
inactive: [13] 106 % of control | [7] 100 % of control and 91 % of control | [14] 97 % of control and 91 % of control | [15] 92 % of control | [8] 98 % of control and 122 % of control | [16] 93 % of control and 91 % of control | [17] 95 % of control | [9] 102 % of control and 88 % of control | [18] 93 % of control and 88 % of control

COC(=O)C1CCC1(C#N)C(=O)OC (stereo unspecified)
inactive: dose: 100.0 mg/kg/injection, schedule: Q01DX009 (ip), vehicle: saline 93 % of control | [10] 98 % of control | dose: 200.0 mg/kg/injection, schedule: Q01DX009 (ip), vehicle: saline 92 % of control | [11] 98 % of control | dose: 400.0 mg/kg/injection, schedule: Q01DX009 (ip), vehicle: saline 109 % of control | [12] 106 % of control

Cc1c(/C=N/N(CCO)CCO)[nH]c(=O)[nH]c1=O
inactive: [13] 103 % of control | [15] 103 % of control | [17] 98 % of control

COC(=O)COc1c(C)cc(Cl)cc1Cl
inactive: [14] 96 % of control | [16] 86 % of control | [18] 98 % of control

Reference: PubChem BioAssay AID248 (DTP/NCI, 2004)
